In brackets after ≈: the same amount, converted by molar mass.
What was measured:
[1] = tested on: Enterococcus gallinarum 245; test: broth micro-dilution MIC; format: cell-based; conditions: Enterococcus gallinarum 245
Protocol: (§1) The formula I compounds have in vitro and in vivo activity against Gram-positive pathogenic bacteria. The MIC's were determined using a standard broth micro-dilution assay.

Entercoccus faecium 180 = test: broth micro-dilution MIC; format: cell-based; conditions: Entercoccus faecium 180
Protocol: as §1

[2] = tested on: Streptococcus pneumoniae P1; test: broth micro-dilution MIC; format: cell-based
Protocol: as §1

[3] = tested on: vancomycin-susceptible enterococci; test: broth micro-dilution, mean geometric MIC; format: cell-based, Enterococcus faecium and Enterococcus faecalis; conditions: enterococci, 24-hour incubation
[4] = tested on: Entercoccus faecium 180-1; test: broth micro-dilution MIC; format: cell-based
Protocol: (§2) The MIC's were determined using a standard broth micro-dilution assay.

[5] = tested on: Streptococcus pyogenes C203; test: broth micro-dilution MIC; format: cell-based
Protocol: as §2

Entercoccus faecium 2041 = test: broth micro-dilution MIC; format: cell-based; conditions: Entercoccus faecium 2041
Protocol: as §1

[6] = tested on: Staphylococcus aureus 446; test: broth micro-dilution MIC; format: cell-based
Protocol: as §2

Entercoccus faecium 276 = test: broth micro-dilution MIC; format: cell-based
Protocol: as §2

[7] = tested on: vancomycin-resistant enterococci; test: broth micro-dilution, mean geometric MIC; format: cell-based, Enterococcus faecium and Enterococcus faecalis; conditions: enterococci, 24-hour incubation
[8] = tested on: Staphylococcus haemolyticus 415; test: broth micro-dilution MIC; format: cell-based
Protocol: as §1

[9] = tested on: Staphylococcus epidermidis 270; test: broth micro-dilution MIC; format: cell-based
Protocol: as §1

[10] = tested on: Staphylococcus haemolyticus 105; test: broth micro-dilution MIC; format: cell-based
Protocol: as §1

[11] = tested on: Staphylococcus aureus S13E; format: cell-based
Protocol: as §2

[12] = tested on: Staphylococcus aureus SA1199B; format: cell-based
Protocol: as §2

[13] = tested on: Staphylococcus aureus X400; test: broth micro-dilution MIC; format: cell-based
Protocol: as §2

[14] = tested on: Staphylococcus aureus X778; test: broth micro-dilution MIC; format: cell-based
Protocol: as §2

[15] = tested on: Staphylococcus aureus 447; test: broth micro-dilution MIC; format: cell-based
Protocol: as §2

| mean geometric MIC, Vancomycin Sensitive Strains [3] | mean geometric MIC, Vancomycin Resistant Strains [7] | SMILES | MIC [1] | MIC [2] | MIC [4] | MIC [5] | MIC [6] | MIC (Entercoccus faecium 276) | other results |
| --- | --- | --- | --- | --- | --- | --- | --- | --- | --- |
| 0.31 µg/mL | 0.50 µg/mL | CCCCCOc1ccc(-c2ccc(CNC3(C)CC(OC4C(Oc5c6cc7cc5Oc5ccc(cc5Cl)C(OC5CC(C)(N)C(O)C(C)O5)C5NC(=O)C(NC(=O)C7NC(=O)C(CC(N)=O)NC(=O)C(NC(=O)C(CC(C)C)NC)C(O)c7ccc(c(Cl)c7)O6)c6ccc(O)c(c6)-c6c(O)cc(O)cc6C(C(=O)O)NC5=O)OC(CO)C(O)C4O)OC(C)C3O)cc2)cc1 (stereo not shown) [Compound 40] | – | – | – | – | – | – | – |
| 0.089 µg/mL | 1.7 µg/mL | CNC(CC(C)C)C(=O)NC1C(=O)NC(CC(N)=O)C(=O)NC2C(=O)NC3C(=O)NC(C(=O)NC(C(=O)O)c4cc(O)cc(O)c4-c4cc3ccc4O)C(OC3CC(C)(N)C(O)C(C)O3)c3ccc(c(Cl)c3)Oc3cc2cc(c3OC2OC(CO)C(O)C(O)C2OC2CC(C)(NCC(C)=Cc3ccc(C(C)(C)C)cc3)C(O)C(C)O2)Oc2ccc(cc2Cl)C1O (stereo not shown) [Compound 42] | – | – | – | – | – | – | – |
| 0.50 µg/mL | 13 µg/mL | CNC(CC(C)C)C(=O)NC1C(=O)NC(CC(N)=O)C(=O)NC2C(=O)NC3C(=O)NC(C(=O)NC(C(=O)O)c4cc(O)cc(O)c4-c4cc3ccc4O)C(OC3CC(C)(N)C(O)C(C)O3)c3ccc(c(Cl)c3)Oc3cc2cc(c3OC2OC(CO)C(O)C(O)C2OC2CC(C)(NCc3c(O)ccc4ccccc34)C(O)C(C)O2)Oc2ccc(cc2Cl)C1O (stereo not shown) [Compound 44] | – | – | – | – | – | – | – |
| 0.50 µg/mL | 2.0 µg/mL | CNC(CC(C)C)C(=O)NC1C(=O)NC(CC(N)=O)C(=O)NC2C(=O)NC3C(=O)NC(C(=O)NC(C(=O)O)c4cc(O)cc(O)c4-c4cc3ccc4O)C(OC3CC(C)(N)C(O)C(C)O3)c3ccc(c(Cl)c3)Oc3cc2cc(c3OC2OC(CO)C(O)C(O)C2OC2CC(C)(NCc3cc(-c4ccccc4)nc4ccc(OC)cc34)C(O)C(C)O2)Oc2ccc(cc2Cl)C1O (stereo not shown) [Compound 45] | – | – | – | – | – | – | – |
| 0.57 µg/mL | 4.7 µg/mL | CNC(CC(C)C)C(=O)NC1C(=O)NC(CC(N)=O)C(=O)NC2C(=O)NC3C(=O)NC(C(=O)NC(C(=O)O)c4cc(O)cc(O)c4-c4cc3ccc4O)C(OC3CC(C)(N)C(O)C(C)O3)c3ccc(c(Cl)c3)Oc3cc2cc(c3OC2OC(CO)C(O)C(O)C2OC2CC(C)(NCC3CC=CCC3)C(O)C(C)O2)Oc2ccc(cc2Cl)C1O (stereo not shown) [Compound 47] | – | – | – | – | – | – | – |
| 0.50 µg/mL | 4.8 µg/mL | CNC(CC(C)C)C(=O)NC1C(=O)NC(CC(N)=O)C(=O)NC2C(=O)NC3C(=O)NC(C(=O)NC(C(=O)O)c4cc(O)cc(O)c4-c4cc3ccc4O)C(OC3CC(C)(N)C(O)C(C)O3)c3ccc(c(Cl)c3)Oc3cc2cc(c3OC2OC(CO)C(O)C(O)C2OC2CC(C)(NCc3ccc4c(c3)OCO4)C(O)C(C)O2)Oc2ccc(cc2Cl)C1O (stereo not shown) [Compound 48] | – | – | – | – | – | – | – |
| 0.22 µg/mL | 72 µg/mL | CNC(CC(C)C)C(=O)NC1C(=O)NC(CC(N)=O)C(=O)NC2C(=O)NC3C(=O)NC(C(=O)NC(C(=O)O)c4cc(O)cc(O)c4-c4cc3ccc4O)C(OC3CC(C)(N)C(O)C(C)O3)c3ccc(c(Cl)c3)Oc3cc2cc(c3OC2OC(CO)C(O)C(O)C2OC2CC(C)(NCc3ccc(C(O)c4ccccc4)cc3)C(O)C(C)O2)Oc2ccc(cc2Cl)C1O (stereo not shown) [Compound 109] | – | – | – | – | – | – | – |

| SMILES | mean geometric MIC, Vancomycin Sensitive Strains [3] | mean geometric MIC, Vancomycin Resistant Strains [7] | MIC [1] | MIC [2] | MIC [4] | MIC [5] | MIC [6] | MIC (Entercoccus faecium 276) | other results |
| --- | --- | --- | --- | --- | --- | --- | --- | --- | --- |
| CCCCCCCCc1ccc(-c2ccc(CNC3(C)CC(OC4C(Oc5c6cc7cc5Oc5ccc(cc5Cl)C(OC5CC(C)(N)C(O)C(C)O5)C5NC(=O)C(NC(=O)C7NC(=O)C(CC(N)=O)NC(=O)C(NC(=O)C(CC(C)C)NC)C(O)c7ccc(c(Cl)c7)O6)c6ccc(O)c(c6)-c6c(O)cc(O)cc6C(C(=O)O)NC5=O)OC(CO)C(O)C4O)OC(C)C3O)cc2)cc1 (stereo not shown) [Compound 21] | 4.3 µg/mL | – | 8 µg/mL (≈ 4.28 µM) | 0.5 µg/mL (≈ 0.267 µM) | 8 µg/mL (≈ 4.28 µM) | 2 µg/mL (≈ 1.07 µM) | – | – | MIC (Entercoccus faecium 180): 8 µg/mL (≈ 4.28 µM) |
| CCCCCCCCOc1ccc(-c2ccc(CNC3(C)CC(OC4C(Oc5c6cc7cc5Oc5ccc(cc5Cl)C(OC5CC(C)(N)C(O)C(C)O5)C5NC(=O)C(NC(=O)C7NC(=O)C(CC(N)=O)NC(=O)C(NC(=O)C(CC(C)C)NC)C(O)c7ccc(c(Cl)c7)O6)c6ccc(O)c(c6)-c6c(O)cc(O)cc6C(C(=O)O)NC5=O)OC(CO)C(O)C4O)OC(C)C3O)cc2)cc1 (stereo not shown) [Compound 23] | 2.0 µg/mL | 5.7 µg/mL | 8 µg/mL (≈ 4.24 µM) | 0.5 µg/mL (≈ 0.265 µM) | 32 µg/mL (≈ 17 µM) | 1 µg/mL (≈ 0.53 µM) | 38 µg/mL (≈ 20.1 µM) | 32 µg/mL (≈ 17 µM) | MIC (Entercoccus faecium 2041): 32 µg/mL (≈ 17 µM) |
| CNC(CC(C)C)C(=O)NC1C(=O)NC(CC(N)=O)C(=O)NC2C(=O)NC3C(=O)NC(C(=O)NC(C(=O)O)c4cc(O)cc(O)c4-c4cc3ccc4O)C(OC3CC(C)(N)C(O)C(C)O3)c3ccc(c(Cl)c3)Oc3cc2cc(c3OC2OC(CO)C(O)C(O)C2OC2CC(C)(NCCc3ccc(Cc4ccccc4)cc3)C(O)C(C)O2)Oc2ccc(cc2Cl)C1O (stereo not shown) [Compound 35] | – | 5.6 µg/mL | ≤ 0.06 µg/mL | – | ≤ 0.06 µg/mL | – | 0.5 µg/mL (≈ 0.28 µM) | ≤ 0.06 µg/mL | MIC [8]: 4 µg/mL (≈ 2.24 µM); MIC [9]: 1 µg/mL (≈ 0.56 µM); MIC (Entercoccus faecium 2041): ≤ 0.06 µg/mL; MIC (Entercoccus faecium 180): 1 µg/mL (≈ 0.56 µM); MIC [10]: 2 µg/mL (≈ 1.12 µM); MIC [11]: ≤ 0.06 µg/mL |
| CNC(CC(C)C)C(=O)NC1C(=O)NC(CC(N)=O)C(=O)NC2C(=O)NC3C(=O)NC(C(=O)NC(C(=O)O)c4cc(O)cc(O)c4-c4cc3ccc4O)C(OC3CC(C)(N)C(O)C(C)O3)c3ccc(c(Cl)c3)Oc3cc2cc(c3OC2OC(CO)C(O)C(O)C2OC2CC(C)(NCc3ccc(C(F)(F)F)cc3)C(O)C(C)O2)Oc2ccc(cc2Cl)C1O (stereo not shown) [Compound 37] | – | 2.4 µg/mL | – | ≤ 0.06 µg/mL | ≤ 0.06 µg/mL | ≤ 0.06 µg/mL | 0.5 µg/mL (≈ 0.286 µM) | 1 µg/mL (≈ 0.571 µM) | MIC [8]: 1 µg/mL (≈ 0.571 µM); MIC [12]: ≤ 0.06 µg/mL; MIC [11]: ≤ 0.06 µg/mL |
| CCOC(c1ccccc1)c1ccc(CNC2(C)CC(OC3C(Oc4c5cc6cc4Oc4ccc(cc4Cl)C(OC4CC(C)(N)C(O)C(C)O4)C4NC(=O)C(NC(=O)C6NC(=O)C(CC(N)=O)NC(=O)C(NC(=O)C(CC(C)C)NC)C(O)c6ccc(c(Cl)c6)O5)c5ccc(O)c(c5)-c5c(O)cc(O)cc5C(C(=O)O)NC4=O)OC(CO)C(O)C3O)OC(C)C2O)cc1 (stereo not shown) [Compound 126] | 0.11 µg/mL | 2.4 µg/mL | 2 µg/mL (≈ 1.1 µM) | ≤ 0.06 µg/mL | ≤ 0.06 µg/mL | ≤ 0.06 µg/mL | 2 µg/mL (≈ 1.1 µM) | 1 µg/mL (≈ 0.55 µM) | MIC [8]: 2 µg/mL (≈ 1.1 µM); MIC [9]: 1 µg/mL (≈ 0.55 µM); MIC (Entercoccus faecium 2041): ≤ 0.06 µg/mL; MIC (Entercoccus faecium 180): 1 µg/mL (≈ 0.55 µM); MIC [10]: 0.5 µg/mL (≈ 0.275 µM); MIC [13]: 1 µg/mL (≈ 0.55 µM); MIC [14]: 0.5 µg/mL (≈ 0.275 µM); MIC [15]: 1 µg/mL (≈ 0.55 µM); MIC [12]: 1 µg/mL (≈ 0.55 µM); MIC [11]: 0.5 µg/mL (≈ 0.275 µM) |

Reference: patent US5840684A, “Glycopeptide antibiotic derivatives” (Eli Lilly and Company, priority 1995, dated 1998)
